Assays:
esterase [1] = assay: Fluorescence response of Lyso-1 upon incubation with esterase; type: biochemical
Procedure: The measurements were performed in 10 mM PBS (pH 7.4) with λex/em=356/532 nm.
For esterase at 0.50 U mL^−1, the fluorescence increase could reach a plateau in 15 min, which is sigmoidal in shape due to the two-stepwise sequential hydrolysis of Lyso-1 to 2. The fluorescence could only be fully generated after the two-step reaction completed and formation of intramolecular hydrogen bonds. […] The detection limit (3 S/m, in which S is the standard deviation of blank measurements, and m is the slope of the linear equation) is determined to be 2.4×10-3 U mL^−1.
(§1) The UV-vis absorption spectra were obtained using UV-vis spectrometer (Shimadzu, UV-1700, Japan). PL measurements were carried out on a Perkin-Elmer LS-55 equipped with a xenon lamp excitation source and a Hamamatsu (Japan) 928 PMT, using 90° angle detection for solution samples. The cells were imaged by fluorescence microscope (Nikon Al Confocal microscope). The time-dependence fluorescence scans of Lyso-1 were conducted with microplate reader (TECAN). ^1H and ^13C NMR spectra were measured on a Bruker ARX 400 NMR spectrometer. The molecular mass was acquired using ion trap-time-of-flight mass spectrometry (MS-IT-TOF) (Shimadzu).

[2] = test system: MCF-7 breast cancer cells; assay: Cell viability by MTT assay; type: cell-based; details: 1, 2, 4, 8, or 16 μM for 24 h
Procedure: The samples were incubated with 1, 2, 4, 8, or 16 μM Lyso-1 for 24 h, and the cell viabilities are close to 100% under the testing conditions, indicative of low cytotoxicity of the probe.
MCF-7 cancer cells were seeded in 96-well plates at a density of 4×10^4 cells/mL. After 24 h incubation, the cells were exposed to a series of doses of the probe Lyso-1 at 37° C. After the designated time intervals, the sample wells were washed twice with 1×PBS buffer and freshly prepared MTT solution (0.5 mg/mL, 100 μL) in culture medium was added into each sample well. The MTT medium solution was carefully removed after 3 h incubation in the incubator for the sample wells, whereas the control wells without addition of MTT solution were washed twice with 1×PBS buffer. DMSO (100 μL) was then added into each well and the plate was gently shaken for 10 min at room temperature to dissolve all the precipitates formed. The absorbance of individual wells at 570 nm was then monitored by the microplate Reader. The absorbance of MTT in the sample well was determined by the differentiation between the absorbance of the sample well and that of the respective control well. Cell viability was expressed by the ratio of the absorbance of MTT in the sample wells to that of the cells incubated with culture medium only.

[3] = Photostability by continuous confocal scanning of stained cells; type: physicochemical; details: approximately 8 min continuous confocal scanning, stained MCF-7 cells; Lyso-1 1 μM, LysoTracker Red 50 nM
Procedure: FIGS. 10A-10E show (FIG. 10E) Signal loss (%) of fluorescent emission of Lyso-1 (1 μM) and LysoTracker® Red (50 nM) with increasing time. Excitation wavelength: 405 nm (for Lyso-1) and 560 nm (for LysoTracker® Red); emission filter: 515-560 nm (for Lyso-1) and 581-688 nm (for LysoTracker® Red); (FIGS. 10A-10D) fluorescent images of living MCF-7 cells stained with Lyso-1(1 μM) and LysoTracker® Red (50 nM) at 0 and 5 min.
It has been shown that the signal loss of Lyso-1 is less than 20% in approximately 8 min. In contrast, LysoTracker® Red lost almost approximately 70% of its fluorescence signal.
For Photostability study, MCF-7 cells were stained with 1.0 μM Lyso-1 and LysoTracker® Red for 1 h at 37° C. under 5% CO2. The changes of fluorescence intensity with scan time were determined by CLSM (Zeiss LSM 410, Jena, Germany).
Excitation wavelength: 405 nm (for Lyso-1, 1% laser power) and 560 nm (for LysoTracker® Red, 18% laser power); emission filter: 515-560 nm (for Lyso-1) and 581-688 nm (for LysoTracker® Red). The data were obtained from replicate experiments (n=3).

lysosomes of MCF-7 cells = assay: In situ imaging of lysosomal esterase / colocalization with LysoTracker Red; type: cell-based
Procedure: FIGS. 9A-9H show the colocalization imaging of MCF-7 cells stained with 1.0 μM Lyso-1 and 50 nM LysoTracker®-red for 30 min at 37° C. (FIG. 9A and FIG. 9E) Bright-field image. (FIG. 9B and FIG. 9F) Confocal image from Lyso-1 on channel 1 (λex=405 nm, λem=515-560 nm). (FIG. 9C and FIG. 9G) Confocal image from LysoTracker® Red on channel 2 (λex=559 nm, λem=585-610 nm). (FIG. 9D and FIG. 9H) Merged image of channels 1 and 2. Scale bar=20 μm.
A discrete labeling pattern that matched the distribution of lysosomes was obtained using Lyso-1 (FIG. 9a-d). […] To verify that the probes can selectively target lysosomes, the probe 6 without of lysosome targeting morpholines was also tested for cell imaging as a comparison. […] These experiments clearly verified that Lyso-1 can selectively target lysosome.
MCF-7 cells were seeded at a density of 2×10^4/well in the chamber (LAB-TEK, Chambered Coverglass System) and grown for 18 h at 37° C. in a humidified 5% CO2 incubator. The cells were washed twice with 1×PBS buffer and 0.3 mL fresh serum-free medium containing 1.0 μM Lyso-1 solution was then added to the chamber.
For co-staining between Lyso-1 and LysoTracker® Red, the MCF-7 cells were first incubated with 1.0 μM Lyso-1 solution for 2 h, and then the cells were rinsed and incubated in the medium containing 100 nM Lyso-tracker Red for 1 h.
Lyso-1 was excited at 405 nm (1% laser power) and the fluorescence was collected at 515-560 nm; LysoTracker® Red was excited at 560 nm (18% laser power) and fluorescence was collected at 581-688 nm.

esterase [4] = assay: Selectivity of Lyso-1 fluorescence response, esterase versus interference substances; type: biochemical; details: Lyso-1 10 μM; esterase 0.50 U mL^−1 vs MgCl2, CaCl2, vitamin C, H2O2, BO3−, lysozyme, cathepsin B; PBS pH 7.4, 37° C.
[5] = test system: lysosomal esterase in MCF-7 cells; assay: Real-time fluorescence imaging of lysosomal esterase activity; type: cell-based
Procedure: As the incubation time elapses, the fluorescence intensity increases quickly which reaches a maximum at 8 min. The real-time fluorescence images shown in FIG. 12 indicate that the probe is non-fluorescent in the cell culture media.
[…] The intensity images of Lyso-1 were recorded with the emission in the range of 515-560 nm. Excitation wavelength: 405 nm.

mitochondria = assay: Mitochondria imaging; type: cell-based
Procedure: FIGS. 30A-30C show Colocalization imaging of Hela cells stained with 5.0 μM MitoGreen-2 and 50 nM MitoTracker®-red.
MitoGreen-1 and MitoGreen-2 can be easily modified by adding further reactive groups to detect certain enzymes or bioactive molecules.

[6] = Photoluminescence / AIE properties in solvent-water mixtures; type: physicochemical
Source text: At ˜532 nm, there is almost no fluorescence for Lyso-1, whereas a strong emission with a 200-fold enhancement is observed for 2 from the keto tautomer ([…]). The weak emission at a short wavelength (λmax=˜441 nm) is from the enol tautomer of 2 (FIG. 1). It is noted that there is almost no overlap between the absorption and emission spectrum for salicyladazine dye 2, which is highly desirable for imaging applications.
With gradual addition of water into THF from fw=0 to 80 vol %, the emission intensity keeps slow increasing. […] At fw=99 vol %, a 14-fold enhancement of emission has been observed as compared to that in THF, showing an obvious AIE effect.
as §1

β-galactosidase = assay: Hydrolysis of probe by β-galactosidase (fluorescence turn-on); type: biochemical; details: KH2PO4 buffer pH 4.5, 30° C., excitation 365 nm, emission 542 nm
Procedure: Excited at 365 nm. Fluorescence intensity was measured at 542 nm.
After reaction of the probe with β-galactosidase, compound 9 is obtained.

esterase in MCF-7 cells = assay: Esterase activity in living cells by Lyso-1 fluorescence imaging after inhibitor pretreatment; type: cell-based; details: MCF-7 cells pretreated with 0.4 mM
Procedure: (§2) For example, the addition of 0.1 mM AEBSF causes a fluorescence decrease in 10% at 532 nm compared with that without AEBSF. The higher concentrations of AEBSF such as 0.4 and 1.0 mM lead to larger fluorescence decrease of 40% and 65%, respectively. […] Thus, the probe Lyso-1 has a use to screen inhibitors of esterase.

esterase [7] = assay: Effect of esterase inhibitor on esterase activity (Lyso-1 fluorescence readout); type: biochemical; details: Lyso-1 10 μM, esterase 0.50 U mL^−1
Procedure: as §2

For `CC(=O)Oc1cc(OCCCCN2CCOCC2)ccc1/C=N/N=C/c1ccc(OCCCCN2CCOCC2)cc1OC(C)=O` [Lyso-1, ((1E,1′E)-hydrazine-1,2-diylidenebis(methanylylidene))bis(3-(4-morpholinobutoxy)-6,1-phenylene) diacetate], the “fluorescence change without esterase (stability of the probe)” value (esterase [1]; control without esterase, same period of time, PBS pH 7.4) was “hardly changes”, the “time for fluorescence increase to reach a plateau” value (esterase [1]; esterase 0.50 U mL^−1, Lyso-1 10 μM, 10 mM PBS pH 7.4) was 15 min and the cell viability [2] was about 100%. For the same molecule, the “signal loss of fluorescent emission” value [3] was “less than 20%”, the “overlap between fluorescence images of probe and LysoTracker Red” value (lysosomes of MCF-7 cells; MCF-7 cells, 1.0 μM probe, no washing) was “excellent overlap” and the “fluorescence induced by esterase relative to interferences (times brighter)” value (esterase [4]) was 70-200 times. The “incubation time at which fluorescence intensity reaches a maximum” value ([5]; 1.0 μM, room temperature) was 8 min.
With `CC(=O)Oc1cc(OCCCCBr)ccc1/C=N/N=C/c1ccc(OCCCCBr)cc1OC(C)=O` [compound 6, ((1E,1′E)-hydrazine-1,2-diylidenebis(methanylylidene))bis(3-(4-bromobutoxy)-6,1-phenylene) diacetate] the fluorescence of cells (lysosomes of MCF-7 cells; MCF-7 cells incubated with 1.0 μM for 2 h) was “Very weak fluorescence”, the “staining pattern of cells” value (lysosomes of MCF-7 cells; MCF-7 cells incubated with 5.0 μM) was “non-specific staining of the entire cell” and the “time after which probe turns on in the entire cells” value ([5]; 5 μM) was 2 h.
In the case of `Oc1cc(OCCCCCC[P+](c2ccccc2)(c2ccccc2)c2ccccc2)ccc1/C=N/N=C/c1ccc(OCCCCCC[P+](c2ccccc2)(c2ccccc2)c2ccccc2)cc1O.[Br-].[Br-]` [MitoGreen-1, (((((1E,1′E)-hydrazine-1,2-diylidenebis(methanylylidene))bis(3-hydroxy-4,1-phenylene))bis(oxy))bis(hexane-6,1-diyl))bis(triphenylphosphonium) bromide], the binding to mitochondria (mitochondria) is reported as “bind well to mitochondria”.
In the case of `Oc1cc(OCCCCN2CCOCC2)ccc1/C=N/N=C/c1ccc(OCCCCN2CCOCC2)cc1O` [compound 2, 6,6′-((1E,1′E)-hydrazine-1,2-diylidenebis(methanylylidene))-bis(3-(4-morpholinobutoxy)-phenol)], the “quantum yield of keto tautomer emission (printed "0=")” value ([6]; 10 μM in DMSO/water (1:99 v/v), ~532 nm) is reported as 9.6%, the “emission enhancement at ~532 nm compared with Lyso-1” value ([6]; 10 μM in DMSO/water (1:99 v/v), λex=356 nm, keto tautomer emission) is reported as 200 fold and the “enhancement of emission at fw=99 vol % compared to that in THF (AIE effect)” value ([6]; THF/water, 10 μM, excitation 356 nm) is reported as 14 fold.
With `OCC1O[C@@H](Oc2ccccc2/C=N/N=C/c2ccccc2OC2O[C@H](CO)[C@H](O)[C@H](O)[C@H]2O)C(O)C(O)C1O` (stereo in doubt) [β-gal-1, (2S,3S,4R,5S,6S)-2-(hydroxymethyl)-6-(2-((E)-((E)-(2-(((2R,3R,4S,5R,6R)-3,4,5-trihydroxy-6-(hydroxymethyl)tetrahydro-2H-pyran-2-yl)oxy)benzylidene)hydrazono)methyl)phenoxy)tetrahydro-2H-pyran-3,4,5-triol] the “fluorescence upon reaction with β-galactosidase” value (β-galactosidase) was “leads to fluorescence”.
With `CN(C)CCNC(=O)CCc1ccc2n1[B-](F)(F)[N+]1=C(c3ccc[nH]3)C=CC1=C2` [LysoTracker® Red, reference compound] the “signal loss of fluorescent emission” value [3] was “approximately 70%”.
In the case of `Oc1cc(OCCCCCC[n+]2ccccc2)ccc1/C=N/N=C/c1ccc(OCCCCCC[n+]2ccccc2)cc1O.[Br-].[Br-]` [MitoGreen-2, 1,1′-(((((1E,1′E)-hydrazine-1,2-diylidenebis(methanylylidene))bis(3-hydroxy-4,1-phenylene))bis(oxy))bis(hexane-6,1-diyl))bis(pyridin-1-ium) bromide], the binding to mitochondria (mitochondria) is reported as “bind well to mitochondria”.
In the case of `NCCc1ccc(S(=O)(=O)F)cc1` [AEBSF, 4-(2-aminoethyl)benzenesulfonyl fluoride], the “Lyso-1 fluorescence in pretreated cells” value (esterase in MCF-7 cells) is reported as “obviously decreased fluorescence”, the “fluorescence decrease at 532 nm compared with that without AEBSF” value (esterase [7]; 0.1 mM AEBSF) is reported as 10% and the “fluorescence decrease at 532 nm compared with that without AEBSF” value (esterase [7]; 0.4 mM AEBSF) is reported as 40%. The “fluorescence decrease at 532 nm compared with that without AEBSF” value (esterase [7]; 1.0 mM AEBSF) was 65%.
